What was measured:
phospho-ERK1/2 in BAEC = experiment: Western blot of ERK1/2 phosphorylation; assay type: cell-based, bovine; details: BAEC; FGF-2 25 ng/ml; Western blot
Method: Figure 9 (A) Western blots of p-ERK-1 and -2 were performed on BAEC treated with compound 1 as described below. (B) The bar charts show relative protein expression compared to the control given an arbitrary value of 1.0. All experiments were performed at least twice and a representative example is shown. Lane 1 control, lane 2 FGF-2 (25 ng/ml), lane 3 compound 1 ([…]), lane 4 compound 1 (14.3 μM) + FGF-2, lane 5 compound 1 (28.6 μM), lane 6 compound 1 (28.6 μM) + FGF-2.
The method is described in detail elsewhere. In brief, cells were lysed in RIPA buffer, protein concentration determined using the Biorad assay, and approximately 20 μg aliquots separated by 12% SDS-PAGE, electroblotted onto nitrocellulose filters (Hoefer, San Francisco, Ca, USA), blocked overnight with 1% BSA in TBS-Tween and incubated for 4 h at RT with characterised antibodies to phosphor-ERK1/2 (AutogenBioclear, mouse monoclonal, 1:1000). α-Actin (Sigma, UK; 1:1000) was used as a loading control. Filters were washed in TBS-Tween and stained with antibodies to peroxidase-conjugated secondary antibody. Proteins were detected with the ECL system (Amersham, UK). Protein expression was estimated spectrophotometrically from band intensity. Results are semi-quantitative and given a numerical value compared to the weakest observed band assigned an arbitrary value of 1.0. […]

BAEC = experiment: FGF-2-induced chemotaxis, Boyden chamber assay; assay type: cell-based, bovine; details: Bos taurus, 6 h, FGF-2 25 ng/ml
Method: The effect of compounds 1 and 2 on cell migration was examined in vitro using a modified Boyden chamber system with 8.0 μm pore polycarbonate filter inserts (TSL, UK). The filter was coated overnight with 0.1%w/v gelatine, and air-dried. Cells (1 × 10^5) were placed in the upper part of the filter and test compounds at different concentrations with and without growth factors were added to the lower part in SPM. Cells were incubated at 37°C for 6 h and the filter removed and the upper side containing non migrated cells wiped and rinsed. The filters were fixed (4% paraformaldehyde), and stained (Geimsa) and cell migration in duplicate wells was determined by counting cell numbers on the lower surface. Experiments were performed in triplicate and at least two times.

IC50 (BAEC): 30.1 ± 0.85 µM
SMILES: COc1cc(C=Cc2ccc(O)cc2)cc(OC2OC(COC3OC(C)C(O)C(O)C3O)C(O)C(O)C2OC2OC(C)C(O)C(O)C2O)c1 (centres unmarked) [Compound 1]
Inhibition of FGF-2-induced ERK1/2 phosphorylation (phospho-ERK1/2 in BAEC): inhibited
